Measurements reported in PMC11062899, “De novo development of small cyclic peptides that are orally bioavailable” (Nature Chemical Biology, 2023).
pIC50, pKi: −log10 of the molar value. “And” between values parts separate entries of the source, which are not always exact repeats. Equal entries are not always repeated. Where two headings read alike, the source gives them in different places.

How the values were obtained:
[1] = Passive artificial membrane permeability (PAMPA);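 on Permeability% Average: top well sample relative to theoretical equilibrium sample by TIC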
human α-thrombin = human α-thrombin (Homo sapiens, UniProt P00734); experiment: Protease inhibition, Ki for human α-thrombin (fluorogenic substrate Z-Gly-Gly-Arg-AMC); assay type: biochemical; details: for Human alpha thrombin inhibition, slope normalized to DMSO: replicates R1-R3
Procedure: (§1) The inhibition constants (Ki) of cyclic peptides were calculated by measuring thrombin inhibition in the presence of different concentrations of the cyclic peptides. […] Human α-thrombin (Molecular Innovations) and rat α-thrombin (Molecular Innovations) were used at final concentrations of 2 nM and 3 nM, respectively, and fluorogenic substrate (Z-Gly-Gly-Arg-AMC, Bachem) was used at a concentration of 50 μM. Enzymatic activity was determined by measuring fluorescent gain on a Tecan Infinite M200 Pro microplate reader (excitation: 360 nm, emission: 465 nm) or a PHERAstar FSX microplate reader (excitation: 380 nm, emission: 440 nm) for 30 min at 25 °C with a fluorescent readout every 3 min. The two instruments were controlled with Tecan Infinite M200 Pro instrument software (iControl, version 1.12) and PHERAstar FSX software (version 5.70, edition 8), respectively. Protease inhibition was calculated by comparing the enzymatic activity to a control without cyclic peptide.
(§2) Half maximal inhibitory concentration (IC50) values were determined using a four-parameter logistic regression model in GraphPad Prism 9 to fit sigmoidal curves to the acquired data points according to equation (2) below.2 y=b+a−b/1+10^(logIC50−x)p where a and b represent the measured inhibition maximum and minimum, respectively; x is the logarithm of peptide concentration; y is the thrombin activity compared to a control without the cyclic peptide; and p is the Hill coefficient.
(§3) Ki values were calculated using the IC50 and the Cheng–Prusoff equation (equation (3)).3 Ki=IC50/1+S0/Km where Km is the Michaelis–Menten constant of the enzyme for the substrate used in the assay, and [S]0 is the initial substrate concentration.

rat α-thrombin = molecular target: T1, rat α-thrombin (Rattus norvegicus, UniProt P18292); experiment: Protease inhibition, Ki for rat α-thrombin (fluorogenic substrate Z-Gly-Gly-Arg-AMC); assay type: biochemical; details: for Rat alpha thrombin inhibition, slope normalized to DMSO: replicates R1-R3
T1 construct: rat α-thrombin (Molecular Innovations) were used at final concentrations of 2 nM and 3 nM; purchased Molecular Innovations
Procedure: as §1, §2, §3

[2] = peptide concentration 1.00E+02 uM
[3] = peptide concentration 1.19E-05 uM
[4] = peptide concentration 1.22E-02 uM
[5] = peptide concentration 1.25E+01 uM
[6] = peptide concentration 1.53E-03 uM
[7] = peptide concentration 1.56E+00 uM
[8] = peptide concentration 1.91E-04 uM
[9] = peptide concentration 1.95E-01 uM
[10] = peptide concentration 2.38E-05 uM
[11] = peptide concentration 2.44E-02 uM
[12] = peptide concentration 2.50E+01 uM
[13] = peptide concentration 3.05E-03 uM
[14] = peptide concentration 3.12E+00 uM
[15] = peptide concentration 3.81E-04 uM
[16] = peptide concentration 3.91E-01 uM
[17] = peptide concentration 4.77E-05 uM
[18] = peptide concentration 4.88E-02 uM
[19] = peptide concentration 5.00E+01 uM
[20] = peptide concentration 6.10E-03 uM
[21] = peptide concentration 6.25E+00 uM
[22] = peptide concentration 7.63E-04 uM
[23] = peptide concentration 7.81E-01 uM
[24] = peptide concentration 9.54E-05 uM
[25] = peptide concentration 9.77E-02 uM

For `O=C1C[C@H]2CCCN2C(=O)[C@H](Cc2ccccc2)NC(=O)[C@@H](NC(=O)c2ccc(Cl)s2)CCCC=CCCCCN1` [compound 44], the “PAMPA permeability: % permeability” value ([1]; 50 μM, 12–18 h, acceptor concentration relative to equilibrium) was 48 ± 19%, the “Permeability% (single replicates R1–R3)” value ([1]; 50 μM, 13 h (Fig. 5d)) was 26.09% and 53.35% and 63.35% and the “Permeability% Average” value ([1]; 50 μM, 13 h (Fig. 5d)) was 47.6%. For the same compound, the Papp at 50 μM ([1]; PAMPA, pH 7.4) was 5.62 ×10⁻⁶ cm/s, the pKi (human α-thrombin; average of R1-R3, read-out: Human alpha thrombin inhibition, Ki Average) was 5.94 and the “Human alpha thrombin inhibition, slope normalized to DMSO” value (human α-thrombin; [2]) was 21.2 and 22.5 and 13.5. For the same compound, the “Human alpha thrombin inhibition, slope normalized to DMSO” value (human α-thrombin; [3]) was 107.9 and 108.1 and 100.7, the “Human alpha thrombin inhibition, slope normalized to DMSO” value (human α-thrombin; [4]) was 45.0 and 106.0 and 79.1 and the “Human alpha thrombin inhibition, slope normalized to DMSO” value (human α-thrombin; [5]) was 20.5 and 29.2 and 28.2. The “Human alpha thrombin inhibition, slope normalized to DMSO” value (human α-thrombin; [6]) was 70.8 and 98.2 and 101.6, the “Human alpha thrombin inhibition, slope normalized to DMSO” value (human α-thrombin; [7]) was 57.8 and 72.9 and 62.5 and the “Human alpha thrombin inhibition, slope normalized to DMSO” value (human α-thrombin; [8]) was 100.2 and 106.6 and 100.4. The “Human alpha thrombin inhibition, slope normalized to DMSO” value (human α-thrombin; [9]) was 100.6 and 90.9 and 89.3, the “Human alpha thrombin inhibition, slope normalized to DMSO” value (human α-thrombin; [10]) was 109.7 and 103.6 and 106.2 and the “Human alpha thrombin inhibition, slope normalized to DMSO” value (human α-thrombin; [11]) was 86.3 and 104.2 and 79.8. For the same compound, the “Human alpha thrombin inhibition, slope normalized to DMSO” value (human α-thrombin; [12]) was 13.8 and 27.1 and 20.7, the “Human alpha thrombin inhibition, slope normalized to DMSO” value (human α-thrombin; [13]) was 101.3 and 97.0 and 101.4 and the “Human alpha thrombin inhibition, slope normalized to DMSO” value (human α-thrombin; [14]) was 19.7 and 40.6 and 23.4. For the same compound, the “Human alpha thrombin inhibition, slope normalized to DMSO” value (human α-thrombin; [15]) was 71.5 and 115.8 and 100.2, the “Human alpha thrombin inhibition, slope normalized to DMSO” value (human α-thrombin; [16]) was 64.9 and 85.6 and 86.8 and the “Human alpha thrombin inhibition, slope normalized to DMSO” value (human α-thrombin; [17]) was 107.4 and 99.0 and 99.6. The “Human alpha thrombin inhibition, slope normalized to DMSO” value (human α-thrombin; [18]) was 103.0 and 102.1 and 95.7, the “Human alpha thrombin inhibition, slope normalized to DMSO” value (human α-thrombin; [19]) was 20.6 and 21.0 and 15.4 and the “Human alpha thrombin inhibition, slope normalized to DMSO” value (human α-thrombin; [20]) was 86.7 and 105.1 and 95.4. For the same compound, the “Human alpha thrombin inhibition, slope normalized to DMSO” value (human α-thrombin; [21]) was 41.3 and 33.5 and 28.3, the “Human alpha thrombin inhibition, slope normalized to DMSO” value (human α-thrombin; [22]) was 100.0 and 108.8 and 108.6 and the “Human alpha thrombin inhibition, slope normalized to DMSO” value (human α-thrombin; [23]) was 74.4 and 82.4 and 81.1. The “Human alpha thrombin inhibition, slope normalized to DMSO” value (human α-thrombin; [24]) was 104.7 and 102.3 and 88.7, the “Human alpha thrombin inhibition, slope normalized to DMSO” value (human α-thrombin; [25]) was 98.8 and 95.6 and 95.8 and the pIC50 (human α-thrombin; single replicates R1-R3, read-out: Human alpha thrombin inhibition, IC50) was 5.89 and 5.78 and 5.81. For the same compound, the Ki (human α-thrombin; single replicates R1-R3, read-out: Human alpha thrombin inhibition, Ki) was 1 µM (2×) and 1.29 µM (2×) and 1.18 µM (2×), the pKi (rat α-thrombin; average of R1-R3, read-out: Rat alpha thrombin inhibition, Ki Average) was 6.60 and the “Rat alpha thrombin inhibition, slope normalized to DMSO” value (rat α-thrombin; [2]) was 7.5 and 5.2 and 7.4. For the same compound, the “Rat alpha thrombin inhibition, slope normalized to DMSO” value (rat α-thrombin; [3]) was 101.0 and 99.4 and 101.8, the “Rat alpha thrombin inhibition, slope normalized to DMSO” value (rat α-thrombin; [4]) was 100.6 and 96.9 and 105.9 and the “Rat alpha thrombin inhibition, slope normalized to DMSO” value (rat α-thrombin; [5]) was 11.6 and 13.6 and 8.8. The “Rat alpha thrombin inhibition, slope normalized to DMSO” value (rat α-thrombin; [6]) was 110.9 and 102.8 and 91.9, the “Rat alpha thrombin inhibition, slope normalized to DMSO” value (rat α-thrombin; [7]) was 29.5 and 31.9 and 33.8 and the “Rat alpha thrombin inhibition, slope normalized to DMSO” value (rat α-thrombin; [8]) was 101.7 (2×) and 104.1. The “Rat alpha thrombin inhibition, slope normalized to DMSO” value (rat α-thrombin; [9]) was 57.9 and 68.0 and 74.9, the “Rat alpha thrombin inhibition, slope normalized to DMSO” value (rat α-thrombin; [10]) was 95.3 and 93.1 and 98.0 and the “Rat alpha thrombin inhibition, slope normalized to DMSO” value (rat α-thrombin; [11]) was 87.6 and 90.4 and 103.1. For the same compound, the “Rat alpha thrombin inhibition, slope normalized to DMSO” value (rat α-thrombin; [12]) was 10.8 and 13.8 and 2.6, the “Rat alpha thrombin inhibition, slope normalized to DMSO” value (rat α-thrombin; [13]) was 84.4 and 99.6 and 89.5 and the “Rat alpha thrombin inhibition, slope normalized to DMSO” value (rat α-thrombin; [14]) was 19.8 and 21.4 and 23.1. For the same compound, the “Rat alpha thrombin inhibition, slope normalized to DMSO” value (rat α-thrombin; [15]) was 100.0 and 99.2 and 101.2, the “Rat alpha thrombin inhibition, slope normalized to DMSO” value (rat α-thrombin; [16]) was 59.7 and 45.3 and 63.3 and the “Rat alpha thrombin inhibition, slope normalized to DMSO” value (rat α-thrombin; [17]) was 96.9 and 93.8 and 94.4. For the same compound, the “Rat alpha thrombin inhibition, slope normalized to DMSO” value (rat α-thrombin; [18]) was 85.6 and 100.2 and 83.3, the “Rat alpha thrombin inhibition, slope normalized to DMSO” value (rat α-thrombin; [19]) was 7.6 and 10.7 and 9.3 and the “Rat alpha thrombin inhibition, slope normalized to DMSO” value (rat α-thrombin; [20]) was 100.9 and 96.3 and 102.1. For the same compound, the “Rat alpha thrombin inhibition, slope normalized to DMSO” value (rat α-thrombin; [21]) was 12.6 and 18.3 and 16.4, the “Rat alpha thrombin inhibition, slope normalized to DMSO” value (rat α-thrombin; [22]) was 96.9 and 104.7 and 92.6 and the “Rat alpha thrombin inhibition, slope normalized to DMSO” value (rat α-thrombin; [23]) was 48.7 and 32.2 and 42.2. The “Rat alpha thrombin inhibition, slope normalized to DMSO” value (rat α-thrombin; [24]) was 95.8 and 96.9 and 102.0, the “Rat alpha thrombin inhibition, slope normalized to DMSO” value (rat α-thrombin; [25]) was 78.0 and 74.1 and 90.2 and the pIC50 (rat α-thrombin; single replicates R1-R3, read-out: Rat alpha thrombin inhibition, IC50) was 6.35 and 6.51 and 6.22. The Ki (rat α-thrombin; single replicates R1-R3, read-out: Rat alpha thrombin inhibition, Ki) was 250 nM (2×) and 171 nM (2×) and 335 nM (2×).
